{
  "source": "paper PMC9694897",
  "about": "(Metabolites, 2022)",
  "key": {"[1]": {"experiment": "ABTS free radical scavenging assay", "conditions": "read-out: ABTS IC50", "description": "To determine the radical scavenging activity of the compound, we added 3.0 mL of ABTS solution to 300 mL of the compound in a cuvette. By spectrophotometer, we measured the absorbance reduction one minute after the mixing of the solution and continued measuring it for 6 min. For positive control, ascorbic acid is used. We then repeated the assay three times and calculated the percent of inhibition according to the formula [35]."}, "[2]": {"experiment": "DPPH free radical scavenging assay", "procedure": "Free radicals and 1,1-diphenyl, 2-picrylhydrazyl (DPPH) were used for the illustration of the free radical scavenging ability of the molecule. This assay involved the addition of different dilutions (250, 500 and 1000 μg/mL) of this compound to 0.004% methanolic solution of DPPH. […] Ascorbic acid, in this case, was used as a positive control. The percent activity was calculated according to the formula."}, "[3]": {"test_system": "carrageenan induced inflammation", "experiment": "In-vivo carrageenan method of inflammation (paw edema)", "design": "species or system Albino mice", "conditions": "flavone 10 mg/kg, aspirin 100 mg/kg", "from_the_text": "(§1) The Albino mice with an average body weight of 25–30 g were obtained from NIH, Islamabad, Pakistan from our designed studies. The animals were kept in the animal house of the university and were kept under controlled conditions as per the standard guidelines. The animals were used in experiments according to the standard protocols as per the approval of Departmental Ethical Committee with approval letter number DREC-140 [36].\nThe progression of inflammation stimulated by carrageenan is a biphasic system. In the initial phase the serotonin and histamine were released, while in the second phase of swelling prostaglandin, bradykinin, leukotriene and lysozyme were mediated. The non-steroidal and steroidal drugs can wield their function in the second phase of the edema formation.\nIn the assay, animals were randomly divided into three groups with eight in each group. The first group, Group I, was the negative control and was given dimethyformamide 1% 10 mL/kg bw. […] The third group (Group III) was given 10 mg/kg bw of the isolated flavone. After ½ h, 1% of the saline solution of carrageenan (w/v, 0.05 mL) was given in a sub-planter area of the animals. Afterwards, the paw edema was determined with the help of a plethysmometer (Model LE 7500 plan. Lab SL) with different time intervals. The paw edema of the mice administered with flavone, and with those of the standard drug, were measured at different time intervals. The measurements of paw edema were compared with the mice serving as the negative control group. The percent inhibition activity was calculated as per the standard procedure."}, "Acute toxicity": {"experiment": "Acute toxicity", "conditions": "mice, 25-2000 mg/kg b. wt, monitored 3 days", "from_the_text": "as §1"}, "[4]": {"test_system": "CCl4-induced oxidative stress markers (SOD, CAT, MDA, TP)", "experiment": "In-vivo antioxidant markers in CCl4-induced oxidative stress", "design": "species or system Albino mice", "conditions": "CCl4 treated mice", "from_the_text": "as §1\nIn this assay, the experimental animals were divided into four groups with five animals in each group. Group I was given the corn oil as a vehicle. The remaining three groups ([…]) were given CCl4 in corn oil in a ratio of 1 to 5 (v/v) for the induction of oxidative stress. The two groups were given 5 and 10 mg/kg bw of the isolated flavone for two weeks. One day after the last administration, the animals were given IM zoletil50 (30 mg/kg bw) with xylazine (5 mg/kg bw) for about 10 min to get anesthetized. Afterwards, the blood sample was taken out by cardiac puncture into EDTA-tubes. After the experiments, the animals were euthanized as per the standard procedure. The blood (200 μL) was centrifuged for 10 min at the rate of 3000 rpm. The plasma was used for the biochemical studies. Afterwards, 0.9% of physiological saline was added to the cellular layer to double up the volume. Again, it was centrifuged under the same set of conditions and the upper layer was discarded. The experiments were repeated three times and erythrocytes were isolated. The isolated erythrocytes were stored at a low temperature (−20 °C). The vital organs like kidneys, liver and heart were harvested, washed and weighted.\nThe RBCs were employed in a cellular model to evaluate the potency of antioxidants to penetrate into the living cells from plasma.\nThe superoxide dismutase assay was performed as per the reported procedure. […] The reaction was initiated with the addition of adrenaline (0.3 mM, 0.3 mL) to the buffered mixture. This was mixed immediately and was subjected to a spectrophotometer as a sample cuvette. The solution of buffer (2.5 mL), substrate (0.3 mL) and distilled water (0.2 mL) were added in the reference cuvette. The increase in absorbance (480 nm) was monitored for 2.5 min with 30 sec intervals against a blank. The SOD was calculated as per the reported procedure.\nThe catalase assay on the isolated compound was performed as per the standard protocols. […] To each of these test tubes, potassium dichromate was added. The tubes were heated for 10 min up to 100 °C. The tubes were then allowed to cool down and optical density was measured at 570 nm. The standard curve of concentration vs. absorbance of H2O2 was plotted. Afterwards, haemolysate (1 mL) was diluted and added to the test tube containing H2O2 (2 mL) and phosphate buffer (2.5 mL, 0.01 M having pH 7.0) and were mixed. After every 30 sec, one ml of solution was withdrawn and was transferred to acidified potassium dichromate (2 mL) for 2 min. This was mixed and heated up to 100 °C for 10 min. The solution was then cooled down and optical density was measured (at 570 nm) against the blank. The catalase activity was calculated as per the standard method.\nThe lipid peroxidation was performed with malondialdehyde assay as per the reported methods. The diluted haemolysate (0.4 mL, 1:10 v/v) was added to the test tube containing acetic acid sodium hydroxide along with thiobarbituric acid, having a volume of 2 mL each. […] The activity was then calculated as per the standard method.\nThe total proteins assay of the experiment was performed as per the standard method. The diluted haemolysate (0.2 mL), bovine albumin (0.2 mL, 2 g/dl), distilled water (2 mL) and working reagent 1 mL (CuSO4 with NaK one part and Na2CO3 with NaOH 100 parts) were added in different test tubes. This was mixed and incubated at room temperature for 10 min. […] The absorbance was measured at 570 nm against the blank."}, "Human recombinant MAO-B": {"target": "T1, Human recombinant MAO-B (Homo sapiens, UniProt P27338)", "T1 sequence (P27338 1-520)": "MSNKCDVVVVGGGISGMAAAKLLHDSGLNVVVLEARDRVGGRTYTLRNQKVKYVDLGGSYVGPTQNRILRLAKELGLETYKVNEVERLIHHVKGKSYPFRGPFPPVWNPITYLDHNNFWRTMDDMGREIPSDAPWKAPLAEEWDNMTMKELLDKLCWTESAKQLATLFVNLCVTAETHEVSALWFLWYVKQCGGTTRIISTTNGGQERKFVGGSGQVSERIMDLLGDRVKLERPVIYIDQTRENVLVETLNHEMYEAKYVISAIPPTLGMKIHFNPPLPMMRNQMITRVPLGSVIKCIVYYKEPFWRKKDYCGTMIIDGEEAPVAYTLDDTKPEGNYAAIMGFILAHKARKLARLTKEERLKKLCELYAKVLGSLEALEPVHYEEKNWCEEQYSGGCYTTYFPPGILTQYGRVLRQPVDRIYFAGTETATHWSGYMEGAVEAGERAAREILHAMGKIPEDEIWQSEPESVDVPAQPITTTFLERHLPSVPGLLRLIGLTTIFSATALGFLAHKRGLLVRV", "experiment": "MAO-B inhibition assay (Amplex Red)", "description": "Human recombinant MAO-B enzymes used in this assay were obtained from insect cells. The substrate used for MAO-B enzyme is benzylamine hydrochloride. For all the enzymes reactions, as well as for dilutions sodium phosphate buffer (0.05 M), a PH of 7.4 is used. […] The activity of the test compound hMAO-B assay is determined by calculating its effect on H2O2 production from benzylamine while using an Amplex Red MAO assay kit (Invitrogen). In this assay, a volume of 0.1 mL sodium phosphate buffer (0.05 M) with a PH of 7.4, which contains different concentrations of the test compound (reference inhibitors or new compound) and a sufficient quantity of recombinant hMAO-B (0.5 μL, 71 Unit/mg) is incubated at 37 °C for 1 h in a 96-well plate. After incubating, the reaction was initiated by the addition of (final concentration) 200 μM Amplex Red reagent, 1 mM benzylamine hydrochloride and 1 Unit/mL horseradish peroxidase. The H2O2 production, and finally resorufin, was measured in a multi-detection microplate fluorescence reader (TECAN) at 37 °C and with an absorbance of 570 nm. […] Then, specific fluorescence absorbance was determined after subtracting the background activity, measured from the vials which contains all the components except hMAO-B, and was replaced by buffer solution [34]."}, "COX-2": {"target": "T2, COX-2 (Homo sapiens, UniProt P35354)", "T2 sequence (P35354 18-604)": "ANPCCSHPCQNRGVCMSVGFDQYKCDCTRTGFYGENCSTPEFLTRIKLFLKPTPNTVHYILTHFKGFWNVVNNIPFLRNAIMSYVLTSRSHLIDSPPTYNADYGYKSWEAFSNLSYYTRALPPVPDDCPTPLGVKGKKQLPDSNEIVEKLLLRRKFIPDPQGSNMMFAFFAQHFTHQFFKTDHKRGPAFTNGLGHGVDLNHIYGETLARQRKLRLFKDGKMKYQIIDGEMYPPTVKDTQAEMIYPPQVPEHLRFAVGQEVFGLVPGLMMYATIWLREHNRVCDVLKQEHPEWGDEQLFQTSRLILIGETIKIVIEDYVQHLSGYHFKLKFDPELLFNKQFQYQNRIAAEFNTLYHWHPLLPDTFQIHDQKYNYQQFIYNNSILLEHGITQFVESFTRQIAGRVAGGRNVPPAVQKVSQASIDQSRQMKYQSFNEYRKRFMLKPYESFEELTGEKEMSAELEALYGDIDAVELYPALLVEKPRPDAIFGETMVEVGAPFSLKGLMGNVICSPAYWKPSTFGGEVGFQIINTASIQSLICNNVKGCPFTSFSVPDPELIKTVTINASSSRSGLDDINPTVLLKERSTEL", "experiment": "biochemical"}, "eqBChE": {"target": "T3, eqBChE (Equus caballus, UniProt P81908)", "T3 construct": "The butyrylcholinesterase (BChE) is obtained from equine serum; from tissue; host or cells: equine serum", "T3 sequence (P81908 whole entry)": "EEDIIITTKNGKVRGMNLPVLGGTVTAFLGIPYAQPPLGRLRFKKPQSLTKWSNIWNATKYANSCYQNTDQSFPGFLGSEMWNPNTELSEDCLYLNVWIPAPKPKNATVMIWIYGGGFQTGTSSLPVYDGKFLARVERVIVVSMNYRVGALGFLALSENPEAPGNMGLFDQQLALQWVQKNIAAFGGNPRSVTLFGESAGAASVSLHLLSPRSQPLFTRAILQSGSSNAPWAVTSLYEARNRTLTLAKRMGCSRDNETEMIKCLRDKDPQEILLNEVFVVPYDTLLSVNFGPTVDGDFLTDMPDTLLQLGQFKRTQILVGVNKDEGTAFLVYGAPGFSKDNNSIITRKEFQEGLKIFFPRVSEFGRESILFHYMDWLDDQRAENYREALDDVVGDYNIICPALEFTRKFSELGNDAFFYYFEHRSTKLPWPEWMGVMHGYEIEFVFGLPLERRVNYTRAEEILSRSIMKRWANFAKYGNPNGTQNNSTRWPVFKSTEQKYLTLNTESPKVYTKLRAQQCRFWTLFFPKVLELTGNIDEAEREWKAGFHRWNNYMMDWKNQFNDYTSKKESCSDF", "experiment": "Anti-cholinesterase assay (DTNB, spectrophotometric), BChE", "format": "biochemical, equine", "from_the_text": "(§2) For the determination of anti-cholinesterase activity of the compounds, the acetylcholinesterase enzymes used were obtained from an electric eel. The butyrylcholinesterase (BChE) is obtained from equine serum. The principle of this assay is based on the hydrolysis of […] by the enzymes AChE and the hydrolysis of butyrylcholine iodide by the enzyme butyrylcholinesterase. This process of hydrolysis yields 5-thio-2-nitrobenzoate anion which then form a complex with DTNB (yellow color) which can be detected by spectrophotometer.\n(§3) Then KOH was used for the adjustment of pH.\n(§4) In each of these enzyme assays, the enzyme solution (5 μL) was added to the cuvette followed by the addition of the compound (205 μL), and finally DTNB reagents (5 μL) were added. The solution was maintained in a water bath at a temperature of 30 °C for 15 min, and then the substrate solution (5 μL) was added. […] The negative control consists of all the components except the compound. […] The absorbance, as well as the reaction time, were taken for 4 min at a temperature of 30 °C and were repeated in triplicate."}, "eeAChE": {"target": "T4, eeAChE (Electrophorus electricus, UniProt O42275)", "T4 construct": "the acetylcholinesterase enzymes used were obtained from an electric eel; from tissue; host or cells: electric eel", "T4 sequence (O42275 24-633)": "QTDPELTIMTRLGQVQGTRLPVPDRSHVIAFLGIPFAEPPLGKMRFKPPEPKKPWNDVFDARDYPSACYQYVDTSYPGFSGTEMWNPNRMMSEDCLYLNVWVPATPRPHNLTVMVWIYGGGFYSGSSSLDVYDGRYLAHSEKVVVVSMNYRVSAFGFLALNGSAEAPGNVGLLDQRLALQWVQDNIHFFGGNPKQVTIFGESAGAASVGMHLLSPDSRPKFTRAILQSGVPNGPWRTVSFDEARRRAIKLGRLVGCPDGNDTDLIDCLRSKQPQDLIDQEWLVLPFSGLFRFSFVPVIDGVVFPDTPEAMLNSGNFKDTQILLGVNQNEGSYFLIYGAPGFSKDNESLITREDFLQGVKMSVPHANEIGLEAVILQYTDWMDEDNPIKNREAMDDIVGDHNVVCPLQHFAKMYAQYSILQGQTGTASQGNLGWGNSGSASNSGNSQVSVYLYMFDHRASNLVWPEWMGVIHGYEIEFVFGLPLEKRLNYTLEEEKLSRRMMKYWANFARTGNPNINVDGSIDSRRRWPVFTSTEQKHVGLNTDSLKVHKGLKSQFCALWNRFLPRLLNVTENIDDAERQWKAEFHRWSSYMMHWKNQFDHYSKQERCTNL", "experiment": "biochemical", "from_the_text": "as §2, §3, §4"}, "5-LOX": {"test_system": "5-LOX", "conditions": "read-out: IC50 5-LOX", "description": "Using an established procedure, the 5-lipoxygenase activity was performed. […] Afterwards, the 5-lipoxygenase solution (10,000 Unit/mL) was prepared. Linoleic acid (80 Mm) was the substrate used for the 5-LOX assay. We also prepared phosphate buffer (50 Mm) with PH 6.3. WE dissolved the various concentrations of the compound in each 0.25 mL of phosphate buffer, then added 0.25 mL of lipoxygenase enzyme to it and incubated it at 25 °C for 5 min. […] We repeated this experiment three times. The standard drug used was Zileuton [36]. By using the following equation, percent inhibition was calculated: Percent inhibition=Absorbance of control−absorbance of sample/Absorbance of control×100"}},
  "data": [
    {"smiles": "C[C@H]1O[C@H](O[C@H]2[C@H](O)[C@@H](O)[C@@H](O[C@H]3[C@H](O)[C@@H](O)C(O)O[C@@H]3CO)O[C@@H]2CO)[C@H](O)[C@@H](O)[C@@H]1N[C@H]1C=C(CO)[C@@H](O)[C@H](O)[C@H]1O", "note": "(some centres unmarked) [Acarbose, reference compound]", "values": [
      {"measurement": "IC50", "setting": "[1]", "result": 12700, "unit": "nM"},
      {"measurement": "IC50", "setting": "[2]", "result": 16000, "unit": "nM"}
    ]},
    {"smiles": "CC(=O)Oc1ccccc1C(=O)O", "note": "[Aspirin, reference compound]", "values": [
      {"measurement": "percent inhibition of paw edema", "setting": "[3]; fifth h", "result": 57.64, "unit": "%"},
      {"measurement": "percent inhibition of paw edema", "setting": "[3]; first hour", "result": 47.54, "unit": "%"},
      {"measurement": "percent inhibition of paw edema", "setting": "[3]; fourth h", "result": 56.92, "unit": "%"},
      {"measurement": "percent inhibition of paw edema", "setting": "[3]; second hour", "result": 54.63, "unit": "%"},
      {"measurement": "percent inhibition of paw edema", "setting": "[3]; third h", "result": 53.26, "unit": "%"}
    ]},
    {"smiles": "COc1ccc(-c2oc3cc(O)ccc3c(=O)c2O)cc1OC", "note": "[Isolated flavone, 2-(3,4-dimethoxyphenyl)-3,7-dihydroxy-4H-chromen-4-one]", "values": [
      {"measurement": "safety in animals (acute toxicity)", "setting": "Acute toxicity", "result": "safe"},
      {"measurement": "IC50", "setting": "[1]", "result": 33400, "unit": "nM"},
      {"measurement": "percent inhibition of paw edema", "setting": "[3]; fifth h", "result": 45, "unit": "%"},
      {"measurement": "percent inhibition of paw edema", "setting": "[3]; first hour", "result": 45, "unit": "%"},
      {"measurement": "percent inhibition of paw edema", "setting": "[3]; fourth h", "result": 49, "unit": "%"},
      {"measurement": "percent inhibition of paw edema", "setting": "[3]; second hour", "result": 47, "unit": "%"},
      {"measurement": "percent inhibition of paw edema", "setting": "[3]; third h", "result": 42, "unit": "%"},
      {"measurement": "MDA blood levels", "setting": "[4]; 5 mg/kg for two weeks", "result": "1.15 ± 0.05", "unit": "µmol/L"},
      {"measurement": "SOD blood levels (second mention)", "setting": "[4]; 5 mg/kg for two weeks", "result": "0.12 ± 0.02", "unit": "UL/mg"},
      {"measurement": "SOD levels", "setting": "[4]; 5 mg/kg for two weeks", "result": "8.52 ± 0.51", "unit": "UL/mg"},
      {"measurement": "MDA blood levels", "setting": "[4]; 10 mg/kg for two weeks", "result": "1.05 ± 0.03", "unit": "µmol/L"},
      {"measurement": "SOD blood levels (second mention)", "setting": "[4]; 10 mg/kg for two weeks", "result": "0.12 ± 0.32", "unit": "UL/mg"},
      {"measurement": "SOD levels", "setting": "[4]; 10 mg/kg for two weeks", "result": "9.58 ± 0.41", "unit": "UL/mg"},
      {"measurement": "TP levels", "setting": "[4]; treated groups versus CCl4 group", "result": "significantly changed"},
      {"measurement": "IC50", "setting": "Human recombinant MAO-B", "result": "140 ± 10", "unit": "nM"},
      {"measurement": "IC50", "setting": "COX-2", "result": "380 ± 120", "unit": "nM"},
      {"measurement": "SI (COX-2 selectivity)", "setting": "COX-2", "result": 18.70},
      {"measurement": "IC50", "setting": "eqBChE", "result": "950 ± 40", "unit": "nM"},
      {"measurement": "SI", "setting": "eqBChE", "result": 1.44},
      {"measurement": "IC50", "setting": "eeAChE", "result": "1370 ± 10", "unit": "nM"},
      {"measurement": "IC50", "setting": "5-LOX", "result": "840 ± 130", "unit": "nM"},
      {"measurement": "IC50", "setting": "[2]", "result": 44300, "unit": "nM"}
    ]}
  ]
}
